Laboratory results as given in paper PMC10866072, “Design, synthesis, molecular modelling and biological evaluation of novel 6-amino-5-cyano-2-thiopyrimidine derivatives as potent anticancer agents against leukemia and apoptotic inducers” (Journal of Enzyme Inhibition and Medicinal Chemistry, 2024).

Columns and labels:
COLO 205 = assay type: cell-based; conditions: Homo sapiens, one dose 10^-5 M, 48 h
SK-MEL-2 = assay type: cell-based; conditions: Homo sapiens, one dose 10^-5 M, 48 h
HOP-92 = assay type: cell-based; conditions: Homo sapiens, one dose 10^-5 M, 48 h
SK-MEL-28 = assay type: cell-based; conditions: Homo sapiens, one dose 10^-5 M, 48 h
OVCAR-4 = assay type: cell-based; conditions: Homo sapiens, one dose 10^-5 M, 48 h
HT29 = assay type: cell-based; conditions: Homo sapiens, HT-29, one dose 10^-5 M, 48 h
SNB-19 = assay type: cell-based; conditions: Homo sapiens, one dose 10^-5 M, 48 h, read-out: % growth
EKVX = assay type: cell-based; conditions: Homo sapiens, one dose 10^-5 M, 48 h
HOP-62 = assay type: cell-based; conditions: Homo sapiens, one dose 10^-5 M, 48 h
HCT-116 = assay type: cell-based; conditions: Homo sapiens, one dose 10^-5 M, 48 h, read-out: % growth
A498 = assay type: cell-based; conditions: Homo sapiens, one dose 10^-5 M, 48 h
UACC-257 = assay type: cell-based; conditions: Homo sapiens, one dose 10^-5 M, 48 h
NCI-H23 = assay type: cell-based; conditions: Homo sapiens, one dose 10^-5 M, 48 h, read-out: % growth
LOX IMVI = assay type: cell-based; conditions: Homo sapiens, one dose 10^-5 M, 48 h, read-out: % growth
SF-295 = assay type: cell-based; conditions: Homo sapiens, one dose 10^-5 M, 48 h
NCI-H226 = assay type: cell-based; conditions: Homo sapiens, one dose 10^-5 M, 48 h
CCRF-CEM = assay type: cell-based; conditions: Homo sapiens, one dose 10^-5 M, 48 h
MALME-3M = assay type: cell-based; conditions: Homo sapiens, one dose 10^-5 M, 48 h
BT-549 = assay type: cell-based; conditions: Homo sapiens, one dose 10^-5 M, 48 h
NCI-H522 = assay type: cell-based; conditions: Homo sapiens, one dose 10^-5 M, 48 h
SF-539 = assay type: cell-based; conditions: Homo sapiens, one dose 10^-5 M, 48 h
TK-10 = assay type: cell-based; conditions: Homo sapiens, one dose 10^-5 M, 48 h
PC-3 = assay type: cell-based; conditions: Homo sapiens, one dose 10^-5 M, 48 h
MCF7 = assay type: cell-based; conditions: Homo sapiens, one dose 10^-5 M, 48 h, read-out: % growth
K-562 = assay type: cell-based; conditions: Homo sapiens, K562, one dose 10^-5 M, 48 h
SN12C = assay type: cell-based, human; conditions: Homo sapiens, one dose 10^-5 M, 48 h
MDA-MB-231/ATCC = assay type: cell-based; conditions: Homo sapiens, one dose 10^-5 M, 48 h
MOLT-4 = assay type: cell-based; conditions: Homo sapiens, one dose 10^-5 M, 48 h, read-out: % growth
HS 578T = assay type: cell-based; conditions: Homo sapiens; one dose 10^-5 M, 48 h; HS 578T; read-out: % growth
OVCAR-3 = assay type: cell-based; conditions: Homo sapiens, one dose 10^-5 M, 48 h
RPMI-8226 = assay type: cell-based; conditions: Homo sapiens, one dose 10^-5 M, 48 h
SK-OV-3 = assay type: cell-based; conditions: Homo sapiens, one dose 10^-5 M, 48 h
OVCAR-5 = assay type: cell-based; conditions: Homo sapiens, one dose 10^-5 M, 48 h
U251 = assay type: cell-based; conditions: Homo sapiens, U-251, one dose 10^-5 M, 48 h
UACC-62 = assay type: cell-based; conditions: Homo sapiens, one dose 10^-5 M, 48 h
[1] = test system: full NCI 60 cell lines panel; conditions: for activity at 10 µM: Homo sapiens, 60 cell, 48 h, read-out: Mean % growth; for activity on all 60 cancer cell lines tested (in words): one dose
Experimental: 60 different human tumour cell lines-representing leukaemia, melanoma, and malignancies of the lung, colon, brain, ovary, breast, prostate, and kidney are used in the operation of this screen.
Compounds were dissolved in DMSO: glycerol (91) and were kept in a freezer at −70° C. The synthesised compounds were introduced to the culture at a single concentration of 1 0 ^−5 M and left to incubate for 48 h. A protein-binding dye called sulforhodamine B was used to measure end points (SRB).
A mean graph showing the % growth of treated cells is used to represent the one-dose data. The value provided for the One-dose assay represents growth in comparison to the no-drug control and to the number of cells at time zero. This enables the identification of lethality (values between 0 and 100) as well as growth inhibition (values less than 0). A value of 100, for instance, indicates no growth inhibition. A value of 40 would indicate 60% growth inhibition. A value of 0 indicates no net growth over the course of the experiment. A value of −40 would indicate 40% lethality.
Furthermore, the average sensitivity of all cell lines to the compound is termed as the full panel mean graph midpoints (MG-MID). The complete panel mean graph midpoints refers to the average sensitivity of all cell lines to the chemical (MG-MID). A measure of a compound’s selectivity for a given cell line is the ratio created by dividing the full panel mean graph midpoints (MG-MID) concentration by the individual subpanel MG-MID concentrations (obtained as the average sensitivity of all the cell lines in a given subpanel to the test compound).

SW-620 = assay type: cell-based; conditions: Homo sapiens, one dose 10^-5 M, 48 h
HCT-15 = assay type: cell-based; conditions: Homo sapiens, one dose 10^-5 M, 48 h, read-out: % growth
NCI/ADR-RES = assay type: cell-based; conditions: Homo sapiens, one dose 10^-5 M, 48 h
A549/ATCC = assay type: cell-based; conditions: Homo sapiens, one dose 10^-5 M, 48 h
SK-MEL-5 = assay type: cell-based; conditions: Homo sapiens, one dose 10^-5 M, 48 h, read-out: % growth
MDA-MB-435 = assay type: cell-based; conditions: Homo sapiens, one dose 10^-5 M, 48 h, read-out: % growth
CAKI-1 = assay type: cell-based; conditions: Homo sapiens, CAKI-1, 48 h, one dose 10^-5 M, 48 h
KM12 = assay type: cell-based; conditions: Homo sapiens, one dose 10^-5 M, 48 h
RXF 393 = assay type: cell-based; conditions: Homo sapiens, RXF 393, 48 h, one dose 10^-5 M, 48 h, read-out: % growth
SR = assay type: cell-based; conditions: Homo sapiens, one dose 10^-5 M, 48 h
MDA-MB-468 = assay type: cell-based; conditions: Homo sapiens, one dose 10^-5 M, 48 h
ACHN = assay type: cell-based; conditions: Homo sapiens, one dose 10^-5 M, 48 h
IGROV1 = assay type: cell-based; conditions: Homo sapiens, IGROV-1, one dose 10^-5 M, 48 h, read-out: % growth
HL-60(TB) = assay type: cell-based; conditions: Homo sapiens, one dose 10^-5 M, 48 h
SF-268 = assay type: cell-based; conditions: Homo sapiens, one dose 10^-5 M, 48 h, read-out: % growth
HCC-2998 = assay type: cell-based; conditions: Homo sapiens, one dose 10^-5 M, 48 h
T-47D = assay type: cell-based; conditions: Homo sapiens, T47D, one dose 10^-5 M, 48 h, read-out: % growth
DU-145 = assay type: cell-based; conditions: Homo sapiens, one dose 10^-5 M, 48 h
OVCAR-8 = assay type: cell-based; conditions: Homo sapiens, one dose 10^-5 M, 48 h
UO-31 = assay type: cell-based; conditions: Homo sapiens, UO-31, 48 h, one dose 10^-5 M, 48 h
M14 = assay type: cell-based; conditions: Homo sapiens, one dose 10^-5 M, 48 h
NCI-H460 = assay type: cell-based; conditions: Homo sapiens, one dose 10^-5 M, 48 h, read-out: % growth
786-0 = assay type: cell-based; conditions: Homo sapiens, one dose 10^-5 M, 48 h

SMILES: N=C(NN=Cc1ccccc1)c1c(N)nc(S)nc1-c1ccc(Cl)cc1Cl [Compound 4m, 4-Amino-6–(2,4-dichlorophenyl)-2-mercapto-N'-[phenylmethylene]pyrimidine-5-carboximidohydrazide]
- % growth at 10 µM (COLO 205): 115%
- % growth at 10 µM (SK-MEL-2): 120%
- % growth at 10 µM (HOP-92): 69.2%
- % cell growth at 10 µM (SK-MEL-28): 104%
- % growth at 10 µM (OVCAR-4): 115%
- % growth at 10 µM (HT29): 108%
- activity at 10 µM (SNB-19): 95.8%
- % cell growth at 10 µM (EKVX): 103%
- % growth at 10 µM (HOP-62): 96.6%
- activity at 10 µM (HCT-116): 103%
- % growth at 10 µM (A498): 125%
- percent cell growth at 10 µM (UACC-257): 106%
- activity at 10 µM (NCI-H23): 98.7%
- activity at 10 µM (LOX IMVI): 100%
- % cell growth at 10 µM (SF-295): 86.9%
- % growth at 10 µM (NCI-H226): 92%
- % cell growth at 10 µM (CCRF-CEM): 105%
- % growth at 10 µM (MALME-3M): 85.7%
- % cell growth at 10 µM (BT-549): 88.5%
- % growth at 10 µM (NCI-H522): 109%
- % growth at 10 µM (SF-539): 100%
- % cell growth at 10 µM (TK-10): 140%
- percent cell growth at 10 µM (PC-3): 103%
- activity at 10 µM (MCF7): 89.1%
- % growth at 10 µM (K-562): 95.8%
- % growth at 10 µM (SN12C): 95.9%
- % growth at 10 µM (MDA-MB-231/ATCC): 94.4%
- activity at 10 µM (MOLT-4): 96.2%
- activity at 10 µM (HS 578T): 102%
- % growth at 10 µM (OVCAR-3): 109%
- % growth at 10 µM (RPMI-8226): 104%
- % growth at 10 µM (SK-OV-3): 95.6%
- percent cell growth at 10 µM (OVCAR-5): 108%
- % growth at 10 µM (U251): 97.3%
- % growth at 10 µM (UACC-62): 94.3%
- activity at 10 µM [1]: 101%
- activity on all 60 cancer cell lines tested (in words) [1]: weak activity
- % growth at 10 µM (SW-620): 109%
- activity at 10 µM (HCT-15): 101%
- cell growth percent at 10 µM (NCI/ADR-RES): 105%
- % growth at 10 µM (A549/ATCC): 97.4%
- activity at 10 µM (SK-MEL-5): 103%
- activity at 10 µM (MDA-MB-435): 110%
- % growth at 10 µM (CAKI-1): 96%
- % growth at 10 µM (KM12): 103%
- activity at 10 µM (RXF 393): 89.5%
- percent cell growth at 10 µM (SR): 83.2%
- percent cell growth at 10 µM (MDA-MB-468): 91.1%
- % growth at 10 µM (ACHN): 108%
- activity at 10 µM (IGROV1): 101%
- % growth at 10 µM (HL-60(TB)): 97.1%
- activity at 10 µM (SF-268): 105%
- % growth at 10 µM (HCC-2998): 105%
- activity at 10 µM (T-47D): 103%
- % growth at 10 µM (DU-145): 111%
- % growth of cells at 10 µM (OVCAR-8): 109%
- % cell growth at 10 µM (UO-31): 90.1%
- % growth at 10 µM (M14): 96.2%
- activity at 10 µM (NCI-H460): 108%
- % growth at 10 µM (786-0): 92.5%

SMILES: N=C(NN=Cc1ccc(Cl)cc1)c1c(N)nc(S)nc1-c1ccc(Cl)cc1Cl [Compound 4n, 4-Amino-N'-[(4-chlorophenyl)methylene]-6–(2,4-dichlorophenyl)-2-mercapto pyrimidine-5-carboximidohydrazide]
- % growth at 10 µM (COLO 205): 114%
- % growth at 10 µM (SK-MEL-2): 108%
- % growth at 10 µM (HOP-92): 64.2%
- % cell growth at 10 µM (SK-MEL-28): 106%
- % growth at 10 µM (OVCAR-4): 107%
- % growth at 10 µM (HT29): 121%
- activity at 10 µM (SNB-19): 90.9%
- % cell growth at 10 µM (EKVX): 108%
- % growth at 10 µM (HOP-62): 83.1%
- activity at 10 µM (HCT-116): 94.6%
- % growth at 10 µM (A498): 122%
- percent cell growth at 10 µM (UACC-257): 108%
- activity at 10 µM (NCI-H23): 92.9%
- activity at 10 µM (LOX IMVI): 95.4%
- % cell growth at 10 µM (SF-295): 73.4%
- % growth at 10 µM (NCI-H226): 86.3%
- % cell growth at 10 µM (CCRF-CEM): 106%
- % growth at 10 µM (MALME-3M): 81.6%
- % cell growth at 10 µM (BT-549): 92.6%
- % growth at 10 µM (NCI-H522): 90.6%
- % growth at 10 µM (SF-539): 87.3%
- % cell growth at 10 µM (TK-10): 143%
- percent cell growth at 10 µM (PC-3): 102%
- activity at 10 µM (MCF7): 83.6%
- % growth at 10 µM (K-562): 89.9%
- % growth at 10 µM (SN12C): 90.1%
- % growth at 10 µM (MDA-MB-231/ATCC): 82.5%
- activity at 10 µM (MOLT-4): 92.4%
- activity at 10 µM (HS 578T): 102%
- % growth at 10 µM (OVCAR-3): 110%
- % growth at 10 µM (RPMI-8226): 102%
- % growth at 10 µM (SK-OV-3): 92.2%
- percent cell growth at 10 µM (OVCAR-5): 105%
- % growth at 10 µM (U251): 70.5%
- % growth at 10 µM (UACC-62): 90.9%
- activity at 10 µM [1]: 97.2%
- activity on all 60 cancer cell lines tested (in words) [1]: weak activity
- % growth at 10 µM (SW-620): 106%
- activity at 10 µM (HCT-15): 101%
- cell growth percent at 10 µM (NCI/ADR-RES): 105%
- % growth at 10 µM (A549/ATCC): 95.8%
- activity at 10 µM (SK-MEL-5): 103%
- activity at 10 µM (MDA-MB-435): 104%
- % growth at 10 µM (CAKI-1): 98.6%
- % growth at 10 µM (KM12): 108%
- activity at 10 µM (RXF 393): 84.7%
- percent cell growth at 10 µM (SR): 90.6%
- percent cell growth at 10 µM (MDA-MB-468): 96.1%
- % growth at 10 µM (ACHN): 83.7%
- activity at 10 µM (IGROV1): 97%
- % growth at 10 µM (HL-60(TB)): 108%
- activity at 10 µM (SF-268): 100%
- % growth at 10 µM (HCC-2998): 101%
- activity at 10 µM (T-47D): 92.6%
- % growth at 10 µM (DU-145): 109%
- % growth of cells at 10 µM (OVCAR-8): 91.2%
- % cell growth at 10 µM (UO-31): 93.2%
- % growth at 10 µM (M14): 95.6%
- activity at 10 µM (NCI-H460): 102%
- % growth at 10 µM (786-0): 78%
